In brackets after ≈: the same amount, converted by molar mass. Entries after “also recorded” stand apart in the source; their conditions may differ. Where two headings read alike, the source gives them in different places.

Experiment [1] relates to Staphylococcus aureus (G+ve) bacteria. As to the kind of experiment: Zone of inhibition (ZI) paper disc test, antibacterial/antioxidant activity. It is filed as cell-based. Conditions: for Inference: radical scavenger: from ZI change with H2O2 / pyrogallol; for Zone of inhibition (ZI), 5 uL of (Compound + H2O2): premixed 0.01M compound + 0.88M H2O2, 1:1, decrease vs pure H2O2 = antioxidant; for Zone of inhibition (ZI), 5 uL of (Compound + Pyrogallol): premixed 0.01M compound + 1M Pyrogallol, 1:1, decrease vs pure pyrogallol = antioxidant; for Zone of inhibition (ZI), 5 uL of 0.01M Compound: pure compound on paper disc, zone width around disk. Here is the method: Tests were conducted to check the antioxidant/antibacterial activity of macrocycle and host-guest compounds. 5 uL of 0.01M compound, 5 uL (premixed, 0.01M compound+1M Pyrogallol, 1:1) and 5 uL (premixed, 0.01M compound+0.88M H2O2, 1:1) were added on paper discs placed on plates. 5 uL of 1M pyrogallol, 5 uL of 0.88M H2O2 were used as control (oxidants). In the following tables, Decrease/Increase means wrt pure H2O2 or pyrogallol. […] Zone=mm of zone width around disk.

The subject of experiment [2] is S. aureus (MU50). In words: Broth serial dilution MIC / growth inhibition in 96-well plate. Particulars: for GI (growth inhibition): at the MIC concentration; for MIC: test range 128-2 ug/mL, LB medium. It is filed as cell-based, Staphylococcus aureus. The procedure: (§1) 3 mg/ml stock solutions of PFD, RsC1, RsC1-PFD (1:1 complex), RsC4, and RsC4-PFD (1:1 complex) were prepared in DMSO (bcoz host soluble in DMSO solution). From the stock, a working solution 4× (highest conc. for each compound in plate) was prepared in LB media. 50 uL of LB media was first added in each well (96 well plate). Then a 4× solution of the respective compound was added to the first row (A4-A12) except A1-A3 (Positive control/bacterial innoculum). Then, the 4× was serially diluted up to well G for all 3 compounds. (A-G). Then, a 50 uL aliquot of the 100-fold diluted bacterial inoculum was added in each test well. Individual test concentrations (in triplicate wells in a 96-well plate) for the given compounds were achieved by serial dilution by using LB medium. Total volume in each well is 100 uL. The final-test concentration range for the individual test compounds for C. acnes, S. aureus and P. aeruginosa are as follows: PFD, RsC1, RsC4, RsC1-PFD complex and RsC4-PFD complex (128-2 ug/mL).

In experiment [3] the test system is klebsiella pneumoniae (G -ve) bacteria. As to the kind of experiment: Zone of inhibition (ZI) paper disc test, antibacterial/antioxidant activity. Particulars: for Inference: radical scavenger: from ZI change with H2O2 / pyrogallol; for Zone of inhibition (ZI), 5 uL of (Compound + H2O2): premixed 0.01M compound + 0.88M H2O2, 1:1; for Zone of inhibition (ZI), 5 uL of (Compound + Pyrogallol): premixed 0.01M compound + 1M Pyrogallol, 1:1; for Zone of inhibition (ZI), 5 uL of 0.01M Compound: pure compound on paper disc. It is filed as cell-based. The procedure:
(§2) Tests were conducted to check the antioxidant/antibacterial activity of macrocycle and host-guest compounds. 5 uL of 0.01M compound, 5 uL (premixed, 0.01M compound+1M Pyrogallol, 1:1) and 5 uL (premixed, 0.01M compound+0.88M H2O2, 1:1) were added on paper discs placed on plates. 5 uL of 1M pyrogallol, 5 uL of 0.88M H2O2 were used as control (oxidants). In the following tables, Decrease/Increase means wrt pure H2O2 or pyrogallol. […] Zone=mm of zone width around disk. Decrease/Increase wrt pure H2O2 or pyrogallol.

The subject of experiment [4] is E. Coli (G-ve) bacteria. The description is as above. Type of experiment: cell-based. Conditions: for Inference: radical scavenger: from ZI change with H2O2 / pyrogallol; for Zone of inhibition (ZI), 5 uL of (Compound + H2O2): premixed 0.01M compound + 0.88M H2O2, 1:1; for Zone of inhibition (ZI), 5 uL of (Compound + Pyrogallol): premixed 0.01M compound + 1M Pyrogallol, 1:1; for Zone of inhibition (ZI), 5 uL of 0.01M Compound: pure compound on paper disc. Here is the method:
as §2

For experiment [5], the system named is Pseudomonas aeruginosa (G-ve) bacteria. Described as above. It is filed as cell-based. Particulars: for Inference: radical scavenger: from ZI change with H2O2 / pyrogallol; for Zone of inhibition (ZI), 5 uL of (Compound + H2O2): premixed 0.01M compound + 0.88M H2O2, 1:1; for Zone of inhibition (ZI), 5 uL of (Compound + Pyrogallol): premixed 0.01M compound + 1M Pyrogallol, 1:1; for Zone of inhibition (ZI), 5 uL of 0.01M Compound: pure compound on paper disc. Here is the method:
as §2

In experiment [6] the test system is C. acnes. As to the kind of experiment: Broth serial dilution MIC / growth inhibition in 96-well plate. Type of experiment: cell-based, Cutibacterium acnes. Conditions: for GI (growth inhibition): at the MIC concentration; for MIC: test range 128-2 ug/mL, LB medium. Here is the method: 3 mg/ml stock solutions of RsC1, PFD and RsC1-PFD were prepared in DMSO (bcoz host soluble in DMSO solution). From the stock, a working solution 4× (highest conc. for each compound in plate) was prepared in LB media. 50 uL of LB media were first added in each well (96 well plate). Then a 4× solution of each respective compound was added to the first row (A4-A12) except A1-A3 (Positive control/bacterial innoculum). Then the 4× was serially diluted up to well G for all 3 compounds. (A-G). Then, a 50 uL aliquot of the 100-fold diluted bacterial inoculum was added in each test well. Individual test concentrations (in triplicate wells in a 96-well plate) for the given compounds were achieved by serial dilution by using LB medium. Total volume in each well was 100 uL. The final-test concentration range for the individual test compounds for C. acne were as follows: Macrocycle, PFD and RsC1-PFD complex (128-2 ug/mL). The results are shown in FIG. 10, which is a bar plot of absorbance (at 600 nm) at various test compound concentrations, showing the percent inhibition of pathogen growth in the presence of decreasing concentrations of the test compounds using a twofold dilution series.
as §1, with “RsC4-PFD” for “RsC1, RsC1-PFD”, “complex),” for “complex), RsC4,”, “RsC4” for “RsC4-PFD (1:1 complex)”, “acne” for “acnes, S. aureus and P. aeruginosa are”, “Macrocycle, PFD” for “PFD, RsC1, RsC4, RsC1-PFD complex”
as §1

Experiment [7] deals with P. aeruginosa (BAMF). The description is as above. It is filed as cell-based, Pseudomonas aeruginosa. Conditions: for GI (growth inhibition): at the MIC concentration; for MIC: test range 128-2 ug/mL, LB medium. The procedure: as §1

Regarding `CC1c2cc(c(O)cc2O)C(C)c2cc(c(O)cc2O)C(C)c2cc(c(O)cc2O)C(C)c2cc1c(O)cc2O` (centres unmarked) [RsC1, C-methylresorcin[4]arene], the “Inference: radical scavenger” value in experiment [1] is on record as “potential/Low”; in experiment [3], “Moderate”; in experiment [4] it was “Moderate”; in experiment [5] (listed as R1), “low antioxidant activity; also recorded: Low radical”. Also, the “Inference: Anti-bacterial potential” value in experiment [1] (from ZI of pure compound, listed as R1) is recorded as “slight anti-bacterial activity”. Besides, the “Zone of inhibition (ZI), 5 uL of (Compound + H2O2)” value in experiment [1] is “(4.2 mm)”; in experiment [3] it was “(2.4 mm)”; in experiment [4] it was “(1.9 mm)”; in experiment [5], “(2.1 mm)”. Moreover, the “Zone of inhibition (ZI), 5 uL of (Compound + Pyrogallol)” value in experiment [1] is recorded as “(2.5 mm)”; in experiment [3] it was “No ZI”; in experiment [4] it was “No ZI”; in experiment [5] it was “pyrogallol (1.2 mm”. Besides, the “Zone of inhibition (ZI), 5 uL of 0.01M Compound” value is “(1.2 mm)” in experiment [1], “No ZI” in experiment [3], “No ZI” in experiment [4] and “No ZI” in experiment [5]. Moreover, the “GI (growth inhibition)” value in experiment [2] amounted to 98%; in experiment [6], 96%; in experiment [7], 47%. Also, the MIC in experiment [2] stood at 16 µg/mL (≈ 29.4 µM); in experiment [6] it was 64 µg/mL (≈ 118 µM); in experiment [7], 64 µg/mL (≈ 118 µM). In addition, the “percent inhibition of pathogen growth” value in experiment [6] (at 16 μg/mL, absorbance at 600 nm (FIG. 10)) turned out to be 35%.

Regarding `CCCCCCC1c2cc(c(O)c(O)c2O)C(CCCCCC)c2cc(c(O)c(O)c2O)C(CCCCCC)c2cc(c(O)c(O)c2O)C(CCCCCC)c2cc1c(O)c(O)c2O` (centres unmarked) [P6], the “Inference: radical scavenger” value in experiment [1] is listed as “Low radical”; in experiment [3], “Moderate”; in experiment [4], “Moderate”; in experiment [5], “Low radical”. Also, the “Zone of inhibition (ZI), 5 uL of (Compound + H2O2)” value is listed as “(3.8 mm)” in experiment [1], “(2 mm)” in experiment [3], “(1.7 mm)” in experiment [4] and “(2.2 mm)” in experiment [5]. Also, the “Zone of inhibition (ZI), 5 uL of (Compound + Pyrogallol)” value is recorded as “(2 mm)” in experiment [1], “No ZI” in experiment [3], “No ZI” in experiment [4] and “pyrogallol (1.2 mm” in experiment [5]. In addition, the “Zone of inhibition (ZI), 5 uL of 0.01M Compound” value in experiment [1], in experiment [3], in experiment [4] and in experiment [5] was “No ZI” in each case.

For the compound `OO` [H2O2], the “Zone of inhibition (ZI), 5 uL of 0.88M H2O2” value in experiment [1] (oxidant control alone) was “(4.6 mm)”; in experiment [3] (oxidant control alone) it was “ZI (3 mm”; in experiment [4] (oxidant control alone) it was “ZI (2.9 mm”; in experiment [5] (oxidant control alone), “ZI (2.7 mm”.

In the case of `Oc1cccc(O)c1O` [pyrogallol, Pyrogallol], the “Zone of inhibition (ZI), 5 uL of 1M pyrogallol” value in experiment [1] (oxidant control alone) is recorded as “(3.3 mm)”; in experiment [3] (oxidant control alone), “ZI (0.9 mm”; in experiment [4] (oxidant control alone), “ZI (0.9 mm”; in experiment [5] (oxidant control alone), “ZI (1.1 mm”.

On to `Cc1ccc(=O)n(-c2ccccc2)c1` [PFD, 5-methyl-1-phenylpyridin-2-one], for which the “Inference: radical scavenger” value in experiment [1] was “low to high free radical scavenging effect; also recorded: Moderate”; in experiment [3], “Moderate”; in experiment [4], “Moderate OH”; in experiment [5], “no free radical scavenging effect”. In addition, the “Zone of inhibition (ZI), 5 uL of (Compound + H2O2)” value in experiment [1] is given as “slightly (3.8 mm”; in experiment [3], “(2.2 mm)”; in experiment [4] it was “(1.7 mm)”; in experiment [5], “(2.7 mm)”. For the same compound, the “Zone of inhibition (ZI), 5 uL of (Compound + Pyrogallol)” value in experiment [1] is reported as “No ZI”; in experiment [3], “No ZI”; in experiment [4], “No ZI”; in experiment [5] it was “pyrogallol (1.2 mm”. For the same compound, the “Zone of inhibition (ZI), 5 uL of 0.01M Compound” value in experiment [1], in experiment [3], in experiment [4] and in experiment [5] was “No ZI” throughout. Besides, the minimal inhibitory concentration (MIC) in experiment [2] (Staphylococcus aureus, read-out: MIC) was 128 µg/mL (≈ 691 µM); in experiment [6] (Cutibacterium acnes, read-out: MIC) it was 128 µg/mL (≈ 691 µM); in experiment [7] (Pseudomonas aeruginosa, read-out: MIC), 128 µg/mL (≈ 691 µM). The results for the “GI (growth inhibition)” value in experiment [2], in experiment [6] and in experiment [7] were 45%, 98% and 35%, respectively.

Take `OCCN1CCN(Cc2ccc(O)c3ncccc23)CC1` [VK]: in experiment [1], the “Inference: radical scavenger” value is recorded as “Low radical”; the “Zone of inhibition (ZI), 5 uL of (Compound + H2O2)” value is “(3.7 mm)”; the “Zone of inhibition (ZI), 5 uL of (Compound + Pyrogallol)” value was “(2.3 mm)”; the “Zone of inhibition (ZI), 5 uL of 0.01M Compound” value was “No ZI”. Also, in experiment [3], the “Inference: radical scavenger” value is “Moderate”; the “Zone of inhibition (ZI), 5 uL of (Compound + H2O2)” value is given as “(2.3 mm)”; the “Zone of inhibition (ZI), 5 uL of (Compound + Pyrogallol)” value is on record as “No ZI”; the “Zone of inhibition (ZI), 5 uL of 0.01M Compound” value is “No ZI”. Also, in experiment [4], the “Inference: radical scavenger” value is reported as “High radical”; the “Zone of inhibition (ZI), 5 uL of (Compound + H2O2)” value was “No ZI”; the “Zone of inhibition (ZI), 5 uL of (Compound + Pyrogallol)” value is listed as “No ZI”; the “Zone of inhibition (ZI), 5 uL of 0.01M Compound” value is “No ZI”. For the same compound, in experiment [5], the “Inference: radical scavenger” value is listed as “Moderate”; the “Zone of inhibition (ZI), 5 uL of (Compound + H2O2)” value is given as “(2.2 mm)”; the “Zone of inhibition (ZI), 5 uL of (Compound + Pyrogallol)” value is “(0.7 mm)”; the “Zone of inhibition (ZI), 5 uL of 0.01M Compound” value is given as “No ZI”.

As a reminder, the MIC is the lowest concentration that inhibits growth of the organism.

The record behind these values is patent US11858899B2, “Complexation of pirfenidone with polyphenolic calixarene or resorcin[4]arenes” (University of Cincinnati, priority 2021, dated 2024).
